According to patent US20240279236A1, “COMPOUNDS AND METHODS OF TREATING TUBERCULOSIS” (Fimbrion Therapeutics, Inc., priority 2021, published 2024):

test system: WT Mtb Erdman strain; assay: Microplate Alamar Blue Assay (MABA), Mtb growth inhibition; assay type: cell-based, Mycobacterium tuberculosis; settings: Mycobacterium tuberculosis, ERDMAN, 168 h, Middlebrook 7H9 media, 7 days at 37° C. in 5% CO2

Row | SMILES | IC50 [nM]
1 | Cc1cc2c(NCCCc3ccc(-c4cc(F)c(Cl)c(F)c4)cc3)nc(-c3ccoc3)nc2s1 [Example 331, N-(3-(4′-chloro-3′,5′-difluoro-[1,1′-biphenyl]-4-yl)propyl)-2-(furan-3-yl)-6-methylthieno[2,3-d]pyrimidin-4-amine] | 30
2 | Cc1cc2c(N[C@@H]3C[C@H]3c3ccc(F)c(F)c3)nc(-c3ccc(F)cn3)nc2s1 [Example 46, N-((1R,2S)-2-(3,4-difluorophenyl)cyclopropyl)-2-(5-fluoropyridin-2-yl)-6-methylthieno[2,3-d]pyrimidin-4-amine] | 2200
3 | CCc1nc(NC2CC(c3ccccc3)C2)c2cc(C)sc2n1 (stereo not shown) [Example 5, 2-ethyl-6-methyl-N-(3-phenylcyclobutyl) thieno[2,3-d]pyrimidin-4-amine] | 2100
4 | CCc1nc(NCCOc2ccccc2)c2cc(C)sc2n1 [Example 11, 2-ethyl-6-methyl-N-(2-phenoxyethyl)thieno [2,3-d]pyrimidin-4-amine] | 2800
5 | Cc1cc(-c2nc(NCCCc3ccc(-c4ccc(OC(F)(F)F)cc4)cc3)c3cc(C)sc3n2)no1 [Example 264, 6-methyl-2-(5-methylisoxazol-3-yl)-N-(3-(4′-(trifluoromethoxy)-[1,1′-biphenyl]-4-yl)propyl)thieno [2,3-d]pyrimidin-4-amine] | 40
6 | Cc1cc2c(N[C@@H]3C[C@H]3c3ccc(F)c(F)c3)nc(-c3ccco3)nc2s1 [Example 88, N-((1R,2S)-2-(3,4-difluorophenyl)cyclopropyl)-2-(furan-2-yl)-6-methylthieno[2,3-d]pyrimidin-4-amine] | 2200
7 | Cc1cc2c(NCCCc3ccc(OC(F)(F)F)cc3)nc(-c3ccc(F)cc3)nc2s1 [Example 82, 2-(4-fluorophenyl)-6-methyl-N-(3-(4-(trifluoromethoxy)phenyl)propyl)thieno[2,3-d]pyrimidin-4-amine] | 1100
8 | Cc1cc2c(NCCCc3ccc(-c4ccc(OC(F)(F)F)cc4)cc3)nc(-c3ccncn3)nc2s1 [Example 426, 6-methyl-2-(pyrimidin-4-yl)-N-(3-(4′-(trifluoromethoxy)-[1,1′-biphenyl]-4-yl)propyl)thieno[2,3-d]pyrimidin-4-amine] | 76
9 | CCc1nc(NCCCc2ccc(-c3ccc(C(F)(F)F)cc3)cc2)c2cc(C)sc2n1 [Example 311, 2-ethyl-6-methyl-N-(3-(4′-(trifluoromethyl)-[1,1′-biphenyl]-4-yl)propyl)thieno [2,3-d]pyrimidin-4-amine] | 27
10 | Cc1cc2c(N[C@@H]3C[C@H]3c3ccc(F)cc3)nc(C(F)(F)F)nc2s1 [Example 181, N-((1R,2S)-2-(4-fluorophenyl)cyclopropyl)-6-methyl-2-(trifluoromethyl) thieno[2,3-d] pyrimidin-4-amine] | 1300
11 | Cc1cc2c(NCCCc3ccc(N4CCOCC4)cc3)nc(C(F)(F)F)nc2s1 [Example 422, 6-methyl-N-(3-(4-morpholinophenyl)propyl)-2-(trifluoromethyl) thieno[2,3-d]pyrimidin-4-amine] | 2100
12 | Cc1cc2c(NCCCN3CCCc4ccccc43)nc(C(F)(F)F)nc2s1 [Example 165, N-(3-(3,4-dihydroquinolin-1(2H)-yl)propyl)-6-methyl-2-(trifluoromethyl) thieno[2,3-d] pyrimidin-4-amine] | 2000
13 | CSc1nc(NCCCc2ccc(-c3ccc(Cl)cc3)cc2)c2cc(C)sc2n1 [Example 425, N-(3-(4′-chloro-[1,1′-biphenyl]-4-yl)propyl)-6-methyl-2-(methylthio)thieno[2,3-d]pyrimidin-4-amine] | 17
14 | Cc1cc2c(NCCCc3ccc(-c4cnc(OC(C)C)cn4)cc3)nc(-c3ccoc3)nc2s1 [Example 392, 2-(furan-3-yl)-6-methyl-N-(3-(4-[5-(propan-2-yloxy)pyrazin-2-yl]phenyl)propyl)thieno[2,3-d]pyrimidin-4-amine] | 44
15 | CCc1nc(NCCCc2cccc(N(C)C)c2)c2cc(C)sc2n1 [Example 253, N-(3-(3-(dimethylamino)phenyl)propyl)-2-ethyl-6-methylthieno[2,3-d]pyrimidin-4-amine] | 1100
16 | Cc1cc2c(N[C@@H]3C[C@H]3c3ccc(F)c(F)c3)nc(-c3ccccn3)nc2s1 [Example 33, N-((1R,2S)-2-(3,4-difluorophenyl)cyclopropyl)-6-methyl-2-(pyridin-2-yl)thieno[2,3-d]pyrimidin-4-amine] | 4300
17 | CCOc1nc(N[C@@H]2C[C@H]2c2ccc(F)c(F)c2)c2cc(C)sc2n1 [Example 150, N-((1R,2S)-2-(3,4-difluorophenyl)cyclopropyl)-2-ethoxy-6-methylthieno[2,3-d]pyrimidin-4-amine] | 380
18 | CCOc1nc(NCCCc2ccc(-c3ccc(OC(F)(F)F)cc3)cc2)c2cc(C)sc2n1 [Example 546, 2-ethoxy-6-methyl-N-(3-(4′-(trifluoromethoxy)-[1,1′-biphenyl]-4-yl)propyl)thieno[2,3-d]pyrimidin-4-amine] | 15
19 | Cc1cc2c(NCCCc3ccc(-c4ccc(OC(F)(F)F)cc4)cc3)nc(C(F)(F)F)nc2s1 [Example 267, 6-methyl-N-(3-(4′-(trifluoromethoxy)-[1,1′-biphenyl]-4-yl)propyl)-2-(trifluoromethyl)-thieno[2,3-d]pyrimidin-4-amine] | 300

Row | SMILES | IC50 [nM]
20 | Cc1cc2c(NCCCc3ccc(-c4ccc(OC(F)(F)F)cc4)cc3)nc(-c3cncn3C)nc2s1 [Example 444, 6-methyl-2-(1-methyl-1H-imidazol-5-yl)-N-(3-(4′-(trifluoromethoxy)-[1,1′-biphenyl]-4-yl)propyl)thieno[2,3-d]pyrimidin-4-amine] | 5500
21 | Cc1cc(-c2nc(NCCCc3ccccc3)c3cc(C)sc3n2)no1 [Example 111, 6-methyl-2-(5-methylisoxazol-3-yl)-N-(3-phenylpropyl)thieno [2,3-d]pyrimidin-4-amin] | 210
22 | c1ccc(CCCNc2nc(N3CCOCC3)nc3sccc23)cc1 [Example 504, 2-morpholino-N-(3-phenylpropyl)thieno[2,3-d]pyrimidin-4-amine] | > 10000
23 | Cc1cc2c(NCCC(=O)Nc3ccccc3)nc(C(F)(F)F)nc2s1 [Example 182, 3-((6-methyl-2-(trifluoromethyl)thieno[2,3-d]pyrimidin-4-yl)amino)-N-phenylpropanamide] | > 10000
24 | Cc1cc2c(NCCCc3ccc(-c4ccc(C(F)(F)F)cn4)cc3)nc(-c3cc[nH]c3)nc2s1 [Example 570, 6-methyl-2-(1H-pyrrol-3-yl)-N-(3-(4-(5-(trifluoromethyl)pyridin-2-yl)phenyl)propyl)thieno[2,3-d]pyrimidin-4-amine] | 230
25 | CCc1nc(NCCCc2ccc(-c3cc(Cl)ccc3Cl)cc2)c2cc(C)sc2n1 [Example 310, N-(3-(2′,5′-dichloro-[1,1′-biphenyl]-4-yl)propyl)-2-ethyl-6-methylthieno[2,3-d]pyrimidin-4-amine] | 380
26 | Cc1cc2c(NCCCc3cccc(Cl)c3)nc(C(F)(F)F)nc2s1 [Example 248, N-(3-(3-chlorophenyl)propyl)-6-methyl-2-(trifluoromethyl) thieno[2,3-d] pyrimidin-4-amine] | 1800
27 | Cc1cc2c(NCCCc3ccc(-c4ccccc4)cc3)nc(C(F)(F)F)nc2s1 [Example 268, N-(3-([1,1′-biphenyl]-4-yl)propyl)-6-methyl-2-(trifluoromethyl) thieno[2,3-d]pyrimidin-4-amine] | 1200
28 | Cc1cc2c(NCCCc3ccc(-c4ccc(OC(F)(F)F)cc4)cc3)nc(-c3ccc(OC(F)(F)F)cc3)nc2s1 [Example 285, 6-methyl-N-(3-(4′-(trifluoromethoxy)-[1,1′-biphenyl]-4-yl)propyl)-2-(4-(trifluoromethoxy)phenyl)thieno [2,3-d]pyrimidin-4-amine] | > 10000
29 | Cc1cc2c(NCCCc3ccc(-c4ccc(OC(F)(F)F)cc4)cc3)nc(C3CCC3)nc2s1 [Example 453, 2-cyclobutyl-6-methyl-N-(3-(4′-(trifluoromethoxy)-[1,1′-biphenyl]-4-yl)propyl)thieno[2,3-d]pyrimidin-4-amine] | 58
30 | Cc1cc2c(NCCCc3ccc(F)c(F)c3)nc(C(F)(F)F)nc2s1 [Example 60, N-(3-(3,4-difluorophenyl)propyl)-6-methyl-2-(trifluoromethyl)thieno [2,3-d]pyrimidin-4-amine] | 4900
31 | Cc1cc2c(NCCCc3ccccc3Cl)nc(C(F)(F)F)nc2s1 [Example 249, N-(3-(2-chlorophenyl)propyl)-6-methyl-2-(trifluoromethyl)thieno [2,3-d]pyrimidin-4-amine] | 4000
32 | Cc1cc2c(NCCCc3ccc(-c4ccc(OC(F)(F)F)cc4)cc3)nc(-c3cn[nH]c3)nc2s1 [Example 454, 6-methyl-2-(1H-pyrazol-4-yl)-N-(3-(4′-(trifluoromethoxy)-[1,1′-biphenyl]-4-yl)propyl)thieno[2,3-d]pyrimidin-4-amine] | > 1000
33 | Cc1cc2c(NCCCc3ccc(-c4ccc(C(C)(C)O)cc4)cc3)nc(-c3ccoc3)nc2s1 [Example 341, 2-[4′-(3-([2-(furan-3-yl)-6-methylthieno[2,3-d]pyrimidin-4-yl]amino)propy1)-[1,1′-biphenyl]-4-yl]propan-2-ol] | 140
34 | Cc1cc2c(NCCCc3ccc(-c4ccc(OC(F)(F)F)cc4)cc3)nc(N3CCC3)nc2s1 [Example 533, 2-(azetidin-1-yl)-6-methyl-N-(3-(4′-(trifluoromethoxy)-[1,1′-biphenyl]-4-yl)propyl)thieno[2,3-d]pyrimidin-4-amine] | 930
35 | CCc1nc(N[C@@H]2C[C@H]2c2ccccc2)c2cc(C)sc2n1 (racemic) [Example 1, 2-ethyl-6-methyl-N-((rac-1S,2R)-2-phenylcyclopropyl) thieno[2,3-d]pyrimidin-4-amine] | 240
36 | CCc1nc(NCCCc2ccc(OC)cc2)c2cc(C)sc2n1 [Example 18, 2-ethyl-N-(3-(4-methoxyphenyl)propyl)-6-methylthieno[2,3-d]pyrimidin-4-amine] | 60
37 | Cc1cc2c(NCCCc3ccccc3)nc(-c3cscn3)nc2s1 [Example 128, 6-methyl-N-(3-phenylpropyl)-2-(thiazol-4-yl)thieno[2,3-d]pyrimidin-4-amine] | 660
